PubChem BioAssay (NCI)
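Method: 48-hour compound exposure of cells in 96-well plates, five concentrations, linear interpolation of endpoints. TGI denotes the concentration required for complete inhibition of growth.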

How the values were obtained:
Assay in all cases: growth of human tumour cells (NCI), 48 h
[1] = test system: CCRF-CEM leukemia
[2] = test system: SK-MEL-5 melanoma
[3] = test system: SK-MEL-28 melanoma
[4] = test system: HCT-15 colon
[5] = test system: A549 NSCLC
[6] = test system: SNB-75 CNS
[7] = test system: K-562 leukemia
[8] = test system: LOX IMVI melanoma
[9] = test system: SNB-78 CNS
[10] = test system: HCC-2998 colon
[11] = test system: RPMI-8226 leukemia
[12] = test system: OVCAR-4 ovarian
[13] = test system: MALME-3M melanoma
[14] = test system: NCI-H226 lung
[15] = test system: UACC-257 melanoma
[16] = test system: SK-OV-3 ovarian
[17] = test system: SK-MEL-2 melanoma
[18] = test system: UACC-62 melanoma
[19] = test system: NCI-H460 lung
[20] = test system: SNB-19 CNS
[21] = test system: SF-268 CNS
[22] = test system: HOP-92 NSCLC
[23] = test system: ACHN renal
[24] = test system: NCI-H522 lung
[25] = test system: SF-295 CNS
[26] = test system: DMS 273 small cell lung
[27] = test system: SF-539 CNS
[28] = test system: HL-60(TB) leukemia
[29] = test system: XF 498 CNS
[30] = test system: SR leukemia
[31] = test system: EKVX NSCLC
[32] = test system: HOP-62 NSCLC
[33] = test system: OVCAR-3 ovarian
[34] = test system: LXFL 529 NSCLC
[35] = test system: M19-MEL melanoma
[36] = test system: HT29 colon
[37] = test system: COLO 205 colon
[38] = test system: U251 CNS
[39] = test system: KM12 colon
[40] = test system: MOLT-4 leukemia
[41] = test system: 786-0 renal
[42] = test system: OVCAR-5 ovarian
[43] = test system: UO-31 renal
[44] = test system: HCT-116 colon
[45] = test system: NCI-H23 lung
[46] = test system: DMS 114 small cell lung
[47] = test system: SN12C renal
[48] = test system: KM20L2 colon
[49] = test system: M14 melanoma
[50] = test system: IGROV1 ovarian
[51] = test system: T-47D breast
[52] = test system: PC-3 prostate
[53] = test system: MCF7 breast
[54] = test system: MDA-N
[55] = test system: NCI/ADR-RES ovarian
[56] = test system: MDA-MB-435
[57] = test system: DU-145 prostate
[58] = test system: OVCAR-8 ovarian
[59] = test system: RXF 393 renal
[60] = test system: BT-549 breast
[61] = test system: SW-620 colon
[62] = test system: HS 578T breast
[63] = test system: CAKI-1 renal
[64] = test system: A498 renal
[65] = test system: MDA-MB-231 breast
[66] = test system: TK-10 renal

## O=C(NC12CC3CC(CC(C3)C1)C2)C(=O)c1c[nH]c2ccc(Cl)cc12
[1]
  TGI: > 100 µM
[2]
  TGI: > 100 µM
[3]
  TGI: > 100 µM
[4]
  TGI: > 100 µM
[5]
  TGI: > 100 µM
[6]
  TGI: 52.1 µM
[7]
  TGI: > 100 µM
[8]
  TGI: 84.8 µM
[9]
  TGI: > 100 µM
[10]
  TGI: > 100 µM
[11]
  TGI: > 100 µM
[12]
  TGI: 56 µM
[13]
  TGI: > 100 µM
[14]
  TGI: > 100 µM
[15]
  TGI: > 100 µM
[16]
  TGI: > 100 µM
[17]
  TGI: 89.4 µM
[18]
  TGI: > 100 µM
[19]
  TGI: > 100 µM
[20]
  TGI: > 100 µM
[21]
  TGI: > 100 µM
[22]
  TGI: 53.2 µM
[23]
  TGI: > 100 µM
[24]
  TGI: > 100 µM
[25]
  TGI: 65.2 µM
[26]
  TGI: > 100 µM
[27]
  TGI: > 100 µM
[28]
  TGI: > 100 µM
[29]
  TGI: 43 µM
[30]
  TGI: > 100 µM
[31]
  TGI: > 100 µM
[32]
  TGI: 66.2 µM
[33]
  TGI: 57.6 µM
[34]
  TGI: > 100 µM
[35]
  TGI: > 100 µM
[36]
  TGI: > 100 µM
[37]
  TGI: > 100 µM
[38]
  TGI: > 100 µM
[39]
  TGI: > 100 µM
[40]
  TGI: > 100 µM
[41]
  TGI: 34.6 µM
[42]
  TGI: > 100 µM
[43]
  TGI: > 100 µM
[44]
  TGI: > 100 µM
[45]
  TGI: > 100 µM
[46]
  TGI: > 100 µM
[47]
  TGI: > 100 µM
[48]
  TGI: > 100 µM
[49]
  TGI: > 100 µM
[50]
  TGI: > 100 µM

## CCOc1cc(C2CC(c3ccc(NS(=O)(=O)c4cc([N+](=O)[O-])ccc4C)cc3)=NN2C(=O)c2ccccc2)ccc1O (stereo unspecified)
[1]
  TGI: > 100 µM
[2]
  TGI: 37.8 µM
[3]
  TGI: > 100 µM
[51]
  TGI: 71.3 µM
[52]
  TGI: > 100 µM
[4]
  TGI: > 100 µM
[5]
  TGI: > 100 µM
[6]
  TGI: 36.6 µM
[7]
  TGI: > 100 µM
[8]
  TGI: > 100 µM
[11]
  TGI: > 100 µM
[12]
  TGI: > 100 µM
[53]
  TGI: > 100 µM
[13]
  TGI: 61.4 µM
[14]
  TGI: > 100 µM
[15]
  TGI: 91.5 µM
[16]
  TGI: 54.5 µM
[17]
  TGI: 30.9 µM
[20]
  TGI: > 100 µM
[21]
  TGI: > 100 µM
[22]
  TGI: 47.6 µM
[23]
  TGI: 85.3 µM
[24]
  TGI: 64.5 µM
[25]
  TGI: 87.7 µM
[27]
  TGI: 52.8 µM
[54]
  TGI: 70.6 µM
[28]
  TGI: 65.4 µM
[55]
  TGI: > 100 µM
[56]
  TGI: > 100 µM
[57]
  TGI: > 100 µM
[30]
  TGI: > 100 µM
[58]
  TGI: > 100 µM
[31]
  TGI: 61.4 µM
[32]
  TGI: 47.2 µM
[33]
  TGI: 36.3 µM
[36]
  TGI: > 100 µM
[59]
  TGI: 42.6 µM
[37]
  TGI: 31.4 µM
[60]
  TGI: 93.3 µM
[38]
  TGI: > 100 µM
[61]
  TGI: > 100 µM
[39]
  TGI: > 100 µM
[40]
  TGI: > 100 µM
[41]
  TGI: 46.7 µM
[42]
  TGI: > 100 µM
[43]
  TGI: > 100 µM
[44]
  TGI: 56.5 µM
[45]
  TGI: 69 µM
[62]
  TGI: > 100 µM
[63]
  TGI: > 100 µM
[64]
  TGI: 44.3 µM
[65]
  TGI: 48.1 µM
[47]
  TGI: 58.9 µM
[66]
  TGI: 54.2 µM
[49]
  TGI: 76.1 µM
[50]
  TGI: > 100 µM
